Results published in ChEMBL document CHEMBL1136464, “Array synthesis of novel lipodepsipeptide” (Bioorg Med Chem Lett, 2003).
≈ marks a conversion by molar mass, not a printed value.

Key:
Assay type in all cases: functional
Enterococcus faecium [1] = assay: Antibacterial activity against Enterococcus faecium ATCC 49452 at 0 % serum
Enterococcus faecium [2] = assay: Antibacterial activity against Enterococcus faecium ATCC 49452 at 10 % serum; conditions: ATCC 49452, Serum
Enterococcus faecalis [3] = assay: Antibacterial activity against Enterococcus faecalis ATCC 6569 at 0 % serum
Enterococcus faecalis [4] = assay: Antibacterial activity against Enterococcus faecalis ATCC 6569 at 10 % serum; conditions: ATCC 6569, Serum
Staphylococcus aureus [5] = assay: Antibacterial activity against methicillin-resistant staphylococcus aureus ATCC 43300 at 10 % serum
Staphylococcus aureus [6] = assay: Antibacterial activity against methicillin susceptible staphylococcus aureus ATCC 29213 at 0 % serum
Staphylococcus aureus [7] = assay: Antibacterial activity against methicillin susceptible staphylococcus aureus ATCC 29213 at 10 % serum
Staphylococcus aureus [8] = assay: Antibacterial activity against methicillin-resistant staphylococcus aureus ATCC 43300 at 0 % serum

Row | SMILES | MIC (Enterococcus faecium [1]) [µg/mL] | MIC (Enterococcus faecium [2]) [µg/mL] | MIC (Enterococcus faecalis [3]) [µg/mL] | MIC (Enterococcus faecalis [4]) [µg/mL] | MIC (Staphylococcus aureus [5]) [µg/mL] | MIC (Staphylococcus aureus [6]) [µg/mL] | MIC (Staphylococcus aureus [7]) [µg/mL] | MIC (Staphylococcus aureus [8]) [µg/mL]
1 | CCCCCCCCCC(=O)N[C@@H](Cc1c[nH]c2ccccc12)C(=O)N[C@H](CC(N)=O)C(=O)N[C@@H](CCO)C(=O)N[C@@H]1C(=O)NCC(=O)N[C@@H](CCCNCc2ccc(OCc3ccccc3)c(Cl)c2)C(=O)N[C@@H](CC(=O)O)C(=O)N[C@H](C)C(=O)N[C@@H](CC(=O)O)C(=O)NCC(=O)N[C@H](CO)C(=O)N[C@@H]([C@H](C)CC(=O)O)C(=O)N[C@@H](CC(=O)c2ccccc2N)C(=O)O[C@@H]1C | 0.39 (≈ 0.212 µM) | 25 (≈ 13.6 µM) | 0.78 (≈ 0.425 µM) | 12.5 (≈ 6.8 µM) | 3.13 (≈ 1.7 µM) | 0.78 (≈ 0.425 µM) | 3.13 (≈ 1.7 µM) | 0.78 (≈ 0.425 µM)
2 | CCCCCCCCCC(=O)N[C@@H](Cc1c[nH]c2ccccc12)C(=O)N[C@H](CC(N)=O)C(=O)N[C@@H](CCO)C(=O)N[C@@H]1C(=O)NCC(=O)N[C@@H](CCCNCc2cccc(F)c2)C(=O)N[C@@H](CC(=O)O)C(=O)N[C@H](C)C(=O)N[C@@H](CC(=O)O)C(=O)NCC(=O)N[C@H](CO)C(=O)N[C@@H]([C@H](C)CC(=O)O)C(=O)N[C@@H](CC(=O)c2ccccc2N)C(=O)O[C@@H]1C | 12.5 (≈ 7.29 µM) | 12.5 (≈ 7.29 µM) | 6.25 (≈ 3.64 µM) | 12.5 (≈ 7.29 µM) | 0.56 (≈ 0.327 µM) | 0.78 (≈ 0.455 µM) | 1.56 (≈ 0.91 µM) | 0.78 (≈ 0.455 µM)
3 | CCCCCCCCCC(=O)N[C@@H](Cc1c[nH]c2ccccc12)C(=O)N[C@H](CC(N)=O)C(=O)N[C@@H](CCO)C(=O)N[C@@H]1C(=O)NCC(=O)N[C@@H](CCCNCc2ccc(OCc3ccc(F)cc3)c([N+](=O)[O-])c2)C(=O)N[C@@H](CC(=O)O)C(=O)N[C@H](C)C(=O)N[C@@H](CC(=O)O)C(=O)NCC(=O)N[C@H](CO)C(=O)N[C@@H]([C@H](C)CC(=O)O)C(=O)N[C@@H](CC(=O)c2ccccc2N)C(=O)O[C@@H]1C | 1.56 (≈ 0.836 µM) | 25 (≈ 13.4 µM) | 0.78 (≈ 0.418 µM) | 12.5 (≈ 6.7 µM) | 3.13 (≈ 1.68 µM) | 0.78 (≈ 0.418 µM) | 6.25 (≈ 3.35 µM) | 0.39 (≈ 0.209 µM)
4 | CCCCCCCCCC(=O)N[C@@H](Cc1c[nH]c2ccccc12)C(=O)N[C@H](CC(N)=O)C(=O)N[C@@H](CCO)C(=O)N[C@@H]1C(=O)NCC(=O)N[C@@H](CCCNCc2ccc(OCc3ccccc3)cc2)C(=O)N[C@@H](CC(=O)O)C(=O)N[C@H](C)C(=O)N[C@@H](CC(=O)O)C(=O)NCC(=O)N[C@H](CO)C(=O)N[C@@H]([C@H](C)CC(=O)O)C(=O)N[C@@H](CC(=O)c2ccccc2N)C(=O)O[C@@H]1C | 3.13 (≈ 1.74 µM) | 25 (≈ 13.9 µM) | 1.56 (≈ 0.865 µM) | 12.5 (≈ 6.93 µM) | 6.25 (≈ 3.47 µM) | 0.78 (≈ 0.433 µM) | 6.25 (≈ 3.47 µM) | 0.78 (≈ 0.433 µM)
5 | CCCCCCCCCC(=O)N[C@@H](Cc1c[nH]c2ccccc12)C(=O)N[C@H](CC(N)=O)C(=O)N[C@@H](CCO)C(=O)N[C@@H]1C(=O)NCC(=O)N[C@@H](CCCNCc2cccc([N+](=O)[O-])c2)C(=O)N[C@@H](CC(=O)O)C(=O)N[C@H](C)C(=O)N[C@@H](CC(=O)O)C(=O)NCC(=O)N[C@H](CO)C(=O)N[C@@H]([C@H](C)CC(=O)O)C(=O)N[C@@H](CC(=O)c2ccccc2N)C(=O)O[C@@H]1C | 6.25 (≈ 3.59 µM) | 12.5 (≈ 7.18 µM) | 6.25 (≈ 3.59 µM) | 12.5 (≈ 7.18 µM) | 1.56 (≈ 0.896 µM) | 0.78 (≈ 0.448 µM) | 1.56 (≈ 0.896 µM) | 0.78 (≈ 0.448 µM)
6 | CCCCCCCCCC(=O)N[C@@H](Cc1c[nH]c2ccccc12)C(=O)N[C@H](CC(N)=O)C(=O)N[C@@H](CCO)C(=O)N[C@@H]1C(=O)NCC(=O)N[C@@H](CCCNCc2ccc(OCc3ccccc3)cc2O)C(=O)N[C@@H](CC(=O)O)C(=O)N[C@H](C)C(=O)N[C@@H](CC(=O)O)C(=O)NCC(=O)N[C@H](CO)C(=O)N[C@@H]([C@H](C)CC(=O)O)C(=O)N[C@@H](CC(=O)c2ccccc2N)C(=O)O[C@@H]1C | 6.25 (≈ 3.44 µM) | 100 (≈ 55 µM) | 1.56 (≈ 0.858 µM) | 50 (≈ 27.5 µM) | 12.5 (≈ 6.87 µM) | 3.13 (≈ 1.72 µM) | 25 (≈ 13.7 µM) | 1.56 (≈ 0.858 µM)
7 | CCCCCCCCCC(=O)N[C@@H](Cc1c[nH]c2ccccc12)C(=O)N[C@H](CC(N)=O)C(=O)N[C@@H](CCO)C(=O)N[C@@H]1C(=O)NCC(=O)N[C@@H](CCCNCc2ccc(C(=O)N3CCN(c4ccccc4)CC3)cc2)C(=O)N[C@@H](CC(=O)O)C(=O)N[C@H](C)C(=O)N[C@@H](CC(=O)O)C(=O)NCC(=O)N[C@H](CO)C(=O)N[C@@H]([C@H](C)CC(=O)O)C(=O)N[C@@H](CC(=O)c2ccccc2N)C(=O)O[C@@H]1C | 6.25 (≈ 3.32 µM) | 6.25 (≈ 3.32 µM) | 3.13 (≈ 1.66 µM) | 6.25 (≈ 3.32 µM) | 1.56 (≈ 0.828 µM) | 0.78 (≈ 0.414 µM) | 1.56 (≈ 0.828 µM) | 0.78 (≈ 0.414 µM)
